Like-named read-outs stand apart in the source and are kept apart here.
Experiments:
[1] = tested on: β-lactamase expressing E. coli; assay: broth microdilution MIC of cefiderocol +/- Compound 1, E. coli strains; type: cell-based; details: Escherichia coli
[2] = tested on: β-lactamase expressing K. pneumoniae; assay: broth microdilution MIC of cefiderocol +/- Compound 1, K. pneumoniae strains; type: cell-based; details: Klebsiella pneumoniae
[3] = tested on: β-lactamase expressing P. mirabilis; assay: broth microdilution MIC of cefiderocol +/- Compound 1, P. mirabilis strain; type: cell-based; details: Proteus mirabilis, read-out: Minimum inhibitory concentration (MIC), P. mirabilis CDC-159 (NDM)
[4] = tested on: MDR-Pseudomonas; assay: broth microdilution MIC of cefiderocol +/- Compound 1 in IDM, panel of 16 MDR Pseudomonas aeruginosa; type: cell-based, P. aeruginosa; details: for MIC: Pseudomonas aeruginosa, read-out: Minimum inhibitory concentration (MIC)
[5] = tested on: metallo- and serine-β-lactamase expressing CRE; assay: checkerboard assay of cefiderocol and Compound 1 in IDM, 22 CRE isolates; type: cell-based, Enterobacteriaceae; details: Compound 1 0 μg/mL
[6] = tested on: cefepime-resistant clinical isolates of Enterobacteriaceae and P. aeruginosa; assay: neutropenic murine thigh infection model, human simulated regimens; type: in vivo, mice; details: human simulated regimen (HSR) of 2 g cefepime alone q8 h; at 24 h; 30 strains
Description: The 2 g:0.5 g dose of cefepime:Compound 1 which is planned for clinical efficacy studies is supported by neutropenic murine thigh infection model studies using 30 cefepime-resistant clinical isolates of Enterobacteriaceae and P. aeruginosa.

[7] = panel of 16 MDR Pseudomonas aeruginosa, IDM

CC(C)(O/N=C(\C(=O)N[C@@H]1C(=O)N2C(C(=O)[O-])=C(C[N+]3(CCNC(=O)c4ccc(O)c(O)c4Cl)CCCC3)CS[C@H]12)c1csc(N)n1)C(=O)O [FDC, cefiderocol] showed an MIC ([1]; read-out: Minimum inhibitory concentration (MIC), E. coli 128 (AmpC, SHV-12, TOHO-2, TEM-1), IDM) of 0.5 µg/mL, an MIC ([1]; read-out: Minimum inhibitory concentration (MIC), E. coli 128 (AmpC, SHV-12, TOHO-2, TEM-1), MHBII) of 2 µg/mL and an MIC ([1]; read-out: Minimum inhibitory concentration (MIC), E. coli 3073 (AmpC, CTX-M3), IDM) of 0.5 µg/mL. For the same compound, the MIC ([1]; read-out: Minimum inhibitory concentration (MIC), E. coli 3073 (AmpC, CTX-M3), MHBII) was 8 µg/mL, the MIC ([1]; read-out: Minimum inhibitory concentration (MIC), E. coli 3327 (TEM-1, SHV-12), IDM) was 0.125 µg/mL and the MIC ([1]; read-out: Minimum inhibitory concentration (MIC), E. coli 3327 (TEM-1, SHV-12), MHBII) was 0.5 µg/mL. For the same compound, the MIC ([1]; read-out: Minimum inhibitory concentration (MIC), E. coli 786978 (KPC 2), IDM) was 0.25 µg/mL, the MIC ([1]; read-out: Minimum inhibitory concentration (MIC), E. coli 786978 (KPC 2), MHBII) was 4 µg/mL and the MIC ([1]; read-out: Minimum inhibitory concentration (MIC), E. coli 787112 (OXA 48), IDM) was 64 µg/mL. It also gave an MIC ([1]; read-out: Minimum inhibitory concentration (MIC), E. coli 787112 (OXA 48), MHBII) of 64 µg/mL, an MIC ([1]; read-out: Minimum inhibitory concentration (MIC), E. coli CDC-61 (KPC-3 TEM-1), IDM) of 0.125 µg/mL and an MIC ([1]; read-out: Minimum inhibitory concentration (MIC), E. coli CDC-61 (KPC-3 TEM-1), MHBII) of 0.25 µg/mL. It also gave an MIC ([1]; read-out: Minimum inhibitory concentration (MIC), E. coli CDC-114 (KPC-3), IDM) of 0.5 µg/mL, an MIC ([1]; read-out: Minimum inhibitory concentration (MIC), E. coli CDC-114 (KPC-3), MHBII) of 4 µg/mL and an MIC ([1]; read-out: Minimum inhibitory concentration (MIC), E. coli CDC-150 (NDM-5), IDM) of 4 µg/mL. For the same compound, the MIC ([1]; read-out: Minimum inhibitory concentration (MIC), E. coli CDC-150 (NDM-5), MHBII) was 128 µg/mL, the MIC ([1]; read-out: Minimum inhibitory concentration (MIC), E. coli GUE 131 (NDM-1), IDM) was 1 µg/mL and the MIC ([1]; read-out: Minimum inhibitory concentration (MIC), E. coli GUE 131 (NDM-1), MHBII) was 2 µg/mL. The MIC ([1]; read-out: Minimum inhibitory concentration (MIC), E. coli SI-151 (VIM-1), IDM) was 0.125 µg/mL, the MIC ([1]; read-out: Minimum inhibitory concentration (MIC), E. coli SI-151 (VIM-1), MHBII) was 0.5 µg/mL and the MIC ([1]; read-out: Minimum inhibitory concentration (MIC), E. coli SI-152 (NDM-1), IDM) was 0.125 µg/mL. For the same compound, the MIC ([1]; read-out: Minimum inhibitory concentration (MIC), E. coli SI-152 (NDM-1), MHBII) was 0.125 µg/mL, the MIC ([1]; read-out: Minimum inhibitory concentration (MIC), E. coli SI-155S (VIM-1), IDM) was 1 µg/mL and the MIC ([1]; read-out: Minimum inhibitory concentration (MIC), E. coli SI-155S (VIM-1), MHBII) was 2 µg/mL. It also gave an MIC ([1]; read-out: Minimum inhibitory concentration (MIC), E. coli SI-P026TC (CMY-2, TEM-1), IDM) of 0.125 µg/mL, an MIC ([1]; read-out: Minimum inhibitory concentration (MIC), E. coli SI-P026TC (CMY-2, TEM-1), MHBII) of 0.25 µg/mL and an MIC ([2]; read-out: Minimum inhibitory concentration (MIC), K. pneummoniae CDC-34 (IMP), IDM) of 0.125 µg/mL. It also gave an MIC ([2]; read-out: Minimum inhibitory concentration (MIC), K. pneummoniae CDC-34 (IMP), MHBII) of 2 µg/mL, an MIC ([2]; read-out: Minimum inhibitory concentration (MIC), K. pneummoniae CDC-40 (VIM), IDM) of 1 µg/mL and an MIC ([2]; read-out: Minimum inhibitory concentration (MIC), K. pneummoniae CDC-40 (VIM), MHBII) of 2 µg/mL. The MIC ([2]; read-out: Minimum inhibitory concentration (MIC), K. pneummoniae CDC-41 (NDM), IDM) was 8 µg/mL, the MIC ([2]; read-out: Minimum inhibitory concentration (MIC), K. pneummoniae CDC-41 (NDM), MHBII) was 128 µg/mL and the MIC ([2]; read-out: Minimum inhibitory concentration (MIC), K. pneummoniae CDC-140 (OXA-181), IDM) was 0.25 µg/mL. It also gave an MIC ([2]; read-out: Minimum inhibitory concentration (MIC), K. pneummoniae CDC-140 (OXA-181), MHBII) of 0.5 µg/mL, an MIC ([2]; read-out: Minimum inhibitory concentration (MIC), K. pneummoniae CDC-153 (NDM, OXA-232), IDM) of 0.06 µg/mL and an MIC ([2]; read-out: Minimum inhibitory concentration (MIC), K. pneummoniae CDC-153 (NDM, OXA-232), MHBII) of 32 µg/mL. It also gave an MIC ([2]; read-out: Minimum inhibitory concentration (MIC), K. pneumoniae 847204 (KPC-2), IDM) of 0.5 µg/mL, an MIC ([2]; read-out: Minimum inhibitory concentration (MIC), K. pneumoniae 847204 (KPC-2), MHBII) of 16 µg/mL and an MIC ([2]; read-out: Minimum inhibitory concentration (MIC), K. pneumoniae 847375 (SHV-12, KPC-2), IDM) of 2 µg/mL. The MIC ([2]; read-out: Minimum inhibitory concentration (MIC), K. pneumoniae 847375 (SHV-12, KPC-2), MHBII) was 32 µg/mL, the MIC ([2]; read-out: Minimum inhibitory concentration (MIC), K. pneumoniae 847747 (CTX-M-2, KPC), IDM) was 0.125 µg/mL and the MIC ([2]; read-out: Minimum inhibitory concentration (MIC), K. pneumoniae 847747 (CTX-M-2, KPC), MHBII) was 8 µg/mL. It also gave an MIC ([2]; read-out: Minimum inhibitory concentration (MIC), K. pneumoniae KIRK (OXA-162), IDM) of 0.25 µg/mL, an MIC ([2]; read-out: Minimum inhibitory concentration (MIC), K. pneumoniae KIRK (OXA-162), MHBII) of 32 µg/mL and an MIC ([2]; read-out: Minimum inhibitory concentration (MIC), K. pneumoniae KPC157 (KPC-3), IDM) of 0.5 µg/mL. It also gave an MIC ([2]; read-out: Minimum inhibitory concentration (MIC), K. pneumoniae KPC157 (KPC-3), MHBII) of 8 µg/mL, an MIC ([2]; read-out: Minimum inhibitory concentration (MIC), K. pneumoniae KPC261 (KPC-2), IDM) of 0.5 µg/mL and an MIC ([2]; read-out: Minimum inhibitory concentration (MIC), K. pneumoniae KPC261 (KPC-2), MHBII) of 16 µg/mL. It also gave an MIC ([2]; read-out: Minimum inhibitory concentration (MIC), K. pneumoniae OMAN 13 (NDM-1), IDM) of 2 µg/mL, an MIC ([2]; read-out: Minimum inhibitory concentration (MIC), K. pneumoniae OMAN 13 (NDM-1), MHBII) of 32 µg/mL and an MIC ([2]; read-out: Minimum inhibitory concentration (MIC), K. pneumoniae SI-117 (VIM-1), IDM) of 4 µg/mL. It also gave an MIC ([2]; read-out: Minimum inhibitory concentration (MIC), K. pneumoniae SI-117 (VIM-1), MHBII) of 16 µg/mL, an MIC ([3]; IDM) of 4 µg/mL and an MIC ([3]; MHBII) of 32 µg/mL. The MIC ([4]; P. aeruginosa 40, IDM) was 4 µg/mL, the MIC ([4]; P. aeruginosa 451, IDM) was 4 µg/mL and the MIC ([4]; P. aeruginosa 635, IDM) was 0.5 µg/mL. The MIC ([4]; P. aeruginosa 152021, IDM) was 0.25 µg/mL, the MIC ([4]; P. aeruginosa 1013996, IDM) was 0.25 µg/mL and the MIC ([4]; P. aeruginosa 1121828, IDM) was 1 µg/mL. For the same compound, the MIC ([4]; P. aeruginosa 1131170, IDM) was 2 µg/mL, the MIC ([4]; P. aeruginosa 1179543, IDM) was 2 µg/mL and the MIC ([4]; P. aeruginosa CDC-0054, IDM) was 0.5 µg/mL. For the same compound, the MIC ([4]; P. aeruginosa CDC-0064, IDM) was 0.5 µg/mL, the MIC ([4]; P. aeruginosa CDC-0095, IDM) was 0.059 µg/mL and the MIC ([4]; P. aeruginosa CDC-0103, IDM) was 4 µg/mL. The MIC ([4]; P. aeruginosa CDC-0108, IDM) was 0.25 µg/mL, the MIC ([4]; P. aeruginosa CDC-0110, IDM) was 8 µg/mL and the MIC ([4]; P. aeruginosa CDC-0111, IDM) was 0.059 µg/mL. It also gave an MIC [4] of 0.125 µg/mL, an MIC50 [4, 7] of 0.5 µg/mL and an MIC90 [4, 7] of 4 µg/mL. The “% of strains inhibited” value ([5]; cefiderocol 0.06 μg/mL) was 5%, the “% of strains inhibited” value ([5]; cefiderocol 0.125 μg/mL) was 5% and the “% of strains inhibited” value ([5]; cefiderocol 0.25 μg/mL) was 5%. For the same compound, the “% of strains inhibited” value ([5]; cefiderocol 0.5 μg/mL) was 15%, the “% of strains inhibited” value ([5]; cefiderocol 1 μg/mL) was 20% and the “% of strains inhibited” value ([5]; cefiderocol 2 μg/mL) was 60%. The “% of strains inhibited” value ([5]; cefiderocol 4 μg/mL) was 75%, the “% of strains inhibited” value ([5]; cefiderocol 8 μg/mL) was 90% and the “% of strains inhibited” value ([5]; cefiderocol 16 μg/mL) was 90%. The “% of strains inhibited” value ([5]; cefiderocol 32 μg/mL) was 95%.
CO/N=C(\C(=O)N[C@@H]1C(=O)N2C(C(=O)[O-])=C(C[N+]3(C)CCCC3)CS[C@H]12)c1csc(N)n1 [FEP, cefepime] was tested, and the “growth on average compared to the T=0 control” value [6] was “approximately 2.7 log10 CFU/thigh”.

Reference: patent US20220054513A1, “COMBINATION COMPOSITIONS COMPRISING A BETA-LACTAMASE INHIBITOR” (VenatoRx Pharmaceuticals, Inc., priority 2018, published 2022)
